# In PMC6965684, “Characterization of binding, functional activity, and contractile responses of the selective 5‐HT1F receptor agonist lasmiditan” (British Journal of Pharmacology, 2019):
# pEC50: −log10 of the molar value. Structures can show the parent of a compound that is named as a salt.
# How the values were obtained:
# 5-HT1F receptor [1] = target: T1, 5-HT1F receptor (Homo sapiens, UniProt P30939); test: cell-based; set-up: species or system CHO-K1; cAMP HTRF agonist assay, Gi coupled receptors, inhibition of stimulated cAMP; settings: cAMP
# T1 construct: gene HTR1F; full-length human recombinant receptor in CHO-K1 cells (Ogeda)
# T1 sequence (P30939 1-366): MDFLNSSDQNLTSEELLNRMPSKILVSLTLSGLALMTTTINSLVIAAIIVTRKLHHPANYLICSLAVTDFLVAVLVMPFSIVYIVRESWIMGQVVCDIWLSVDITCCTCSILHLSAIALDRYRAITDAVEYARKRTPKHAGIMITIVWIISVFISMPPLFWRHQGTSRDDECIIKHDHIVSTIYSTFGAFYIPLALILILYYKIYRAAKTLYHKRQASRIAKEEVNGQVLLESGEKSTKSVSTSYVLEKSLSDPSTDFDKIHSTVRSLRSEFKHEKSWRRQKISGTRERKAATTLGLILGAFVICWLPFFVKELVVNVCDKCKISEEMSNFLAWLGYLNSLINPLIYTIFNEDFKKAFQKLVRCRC
# Procedure: Concentration–response curves were performed in parallel with the agonists. For agonist tests, 12 μl of cells were mixed with 6 μl of the test compound (at increasing concentrations) and 6 μl of https://www.guidetopharmacology.org/GRAC/LigandDisplayForward?ligandId=5190 and then incubated for 30 min at room temperature. After addition of the lysis buffer and 1‐hr incubation, cAMP concentrations were estimated according to the manufacturer specification with the HTRF kit (Cisbio International, Codelet, France). In brief, increasing concentrations of agonists were added to stably transfected cells in buffer in an Optiplate (PerkinElmer Life Sciences, Massachusetts, USA). The plates were incubated, and cells were then lysed by the addition of HTRF reagents (cAMP‐Cryptate and anti‐cAMP‐d2 reagents) and diluted in lysis buffer, followed by incubation at room temperature. As 5‐HT1B receptors have been reported in naïve CHO‐K1 cells (George, Bungay, & Naylor, 1997), we also tested https://www.guidetopharmacology.org/GRAC/LigandDisplayForward?ligandId=4 (5‐CT, the reference agonist for the 5‐HT1B receptor), in CHO‐K1 cells transfected with a non‐5‐HT, GPCR. […] For the new assays developed in this study (i.e., 5‐ht1E receptor), the two independent pIC50 determined must be concordant with a 1 log unit interval for the assays to be validated. […]
# 5-HT1F receptor [2] = target: T1, 5-HT1F receptor; test: radioligand competition, CHO-K1 membranes; format: binding; settings: radioligand listed in supplement Table S1; unreliable (pIC50 printed as <[…])
# Source text: radioligand competition, CHO-K1 membranes on 5-HT1F receptor
structure (smiles),measurement,setting,value
CN(C)[C@@H]1CCc2[nH]c3ccc(NC(=O)c4ccc(F)cc4)cc3c2C1 [LY344864 hydrochloride],pEC50,5-HT1F receptor [1],8.72
N#Cc1ccc(N2CCN(C(=O)COc3ccc4[nH]cc(CCN)c4c3)CC2)cc1 [Donitriptan hydrochloride],5-HT1F / pKi,5-HT1F receptor [2],5.18 -log M
CNC1CCc2[nH]c3ccc(C(N)=O)cc3c2C1 (racemic) [Frovatriptan racemate],pEC50,5-HT1F receptor [1],7.10
